Read-outs that look alike come from different tables or passages of the source.
Legend:
P. falciparum Dd2 = assay: in vitro asexual P. falciparum imaging assay, Dd2 strain; type: cell-based
Procedure: (§1) The antiplasmodial in vitro assay was performed as previously described.[13] In brief, P. falciparum parasites (3D7 and Dd2 strains) were grown in RPMI-1640 medium supplemented with 25 mM HEPES, 5% AB human male serum, 2.5 mg mL^−1 Albumax II, and 0.37 mM hypoxanthine. Parasites were subjected to two rounds of sorbitol synchronization prior to compound addition. Ring stage parasites were incubated with compounds in 384-well imaging CellCarrier microplates, for 72 h at 37 °C, 90% N2, 5% CO2, 5% O2, parasites stained with 4′,6-diamidino-2-phenylindole (DAPI) and imaged using an Opera QEHS microplate confocal imaging system (PerkinElmer). Images were analysed as previously described,[13] and raw data normalized using the in-plate positive and negative controls to obtain percent inhibition, used to calculate IC50 values, through a four-parameter logistic curve fitting in Prism (GraphPad).

P. falciparum 3D7 = assay: in vitro asexual P. falciparum imaging assay, 3D7 strain; type: cell-based
Procedure: as §1

HEK293 cells = assay: HEK293 cell viability (resazurin) assay; type: cell-based, Human; conditions: for inhibition at 80 µM / IC50: Homo sapiens; for inhibition at 80 µM: HEK293, 72 h; for SI, HEK293/3D7: ratio of HEK293 IC50 (or relative IC50) to P. falciparum 3D7 IC50; for IC50: HEK293, 72 h
Procedure: Cell viability was assessed using a minor modification of the protocol previously described.[14] Human embryonic kidney cells (HEK293) were maintained in Dulbecco's modified Eagle's medium supplemented with 10% foetal bovine serum.

[1] = Plasmodium falciparum, DD2, 72 h; read-out: Dd2 IC50
[2] = ratio of Dd2 IC50 to 3D7 IC50 (cross-resistance)
[3] = Plasmodium falciparum, 3D7, 72 h; read-out: 3D7 IC50

SMILES	IC50 (P. falciparum Dd2; [1]) [nM]	Dd2/3D7 (P. falciparum Dd2; [2])	IC50 (P. falciparum 3D7; [3]) [nM]	inhibition at 80 µM (HEK293 cells) [%]	SI, HEK293/3D7 (HEK293 cells)	IC50 (HEK293 cells) [µM]	IC50 (P. falciparum Dd2; Plasmodium falciparum, DD2, 72 h, read-out: Dd2 IC50) [nM]	IC50 (P. falciparum 3D7; Plasmodium falciparum, 3D7, 72 h, read-out: 3D7 IC50) [nM]
Cn1cc(NC(=O)c2cc(NC(=O)c3ccc(/C=C/c4ccc(C(F)(F)F)cc4)cc3)cn2C)cc1C(=O)NCCN1CCOCC1.O=C(O)C(F)(F)F [S-MGB-176]	1236 ± 3	1.6	756 ± 0.8	80	>53	–	–	–
CN(C)c1ccc(/C=C/c2ccc(C(=O)Nc3cc(C(=O)Nc4cc(C(=O)NCCN5CCOCC5)n(C)c4)n(C)c3)cn2)cc1.O=C(O)C(F)(F)F [S-MGB-245]	169.1 ± 0.5	1.1	161 ± 0.5	–	17	2.75	–	–
CN(C)CCNC(=O)c1cc(NC(=O)c2cc(NC(=O)c3ccc(/C=C/c4ccc(N(C)C)cc4)nc3)cn2C)cn1C.O=C(O)C(F)(F)F [S-MGB-246]	53 ± 0.4	1.2	43 ± 0.6	–	90	3.86	–	–
CN(C)CCNC(=O)c1cc(NC(=O)c2cc(NC(=O)c3ccc(/C=C/c4cnc5ccccc5c4)cc3)cn2C)cn1C.O=C(O)C(F)(F)F [S-MGB-248]	57 ± 0.6	1.7	33.4 ± 0.7	–	94	3.13	–	–
CC(C)CCc1sc(NC(=O)c2cc(NC(=O)c3ccc(/C=C/c4cccc(F)c4)cc3)cn2C)nc1C(=O)NCCCN(C)C.O=C(O)C(F)(F)F [S-MGB-378]	171 ± 2.9	1.1	150 ± 4	–	70	10.5	–	–
COc1cccc(/C=C/c2ccc(C(=O)Nc3cc(C(=O)Nc4cc(C(=O)NCCN(C)C)n(C)c4)n(C)c3)cc2)c1.O=C(O)C(F)(F)F [S-MGB-247]	138.6 ± 0.2	1.3	108.9 ± 0.2	100	>183.7	–	–	–
COc1ccc(/C=C/c2ccc(C(=O)Nc3cc(C(=O)Nc4cc(C(=O)NCCC(=N)N)n(C)c4)n(C)c3)cc2)cc1.O=C(O)C(F)(F)F [S-MGB-367]	620.3 ± 0.3	–	367.3 ± 0.9	81	>108.9	–	–	–
Cn1cc(NC(=O)c2cc(NC(=O)c3ccc(NC(=O)c4ccc(F)cc4)cc3)cn2C)cc1C(=O)NCCC(=N)N.O=C(O)C(F)(F)F [S-MGB-388]	228.6 ± 2	1.3	181 ± 2.2	93	>192.9	–	–	–
CCc1nc(N)nc(N)c1-c1ccc(Cl)cc1 [Pyrimeth-amine, pyrimethamine, reference compound]	> 80000	–	2.69 ± 0.26	–	1478	3.98	–	–
Cn1cc(NC(=O)c2cc(NC(=O)c3ccc(NC(=O)c4cccc(F)c4)cc3)cn2C)cc1C(=O)NCCC(=N)N.O=C(O)C(F)(F)F [S-MGB-389]	488 ± 1.8	0.6	857.5 ± 1.3	92	>46.6	–	–	–
CCN(CC)CCCC(C)Nc1ccnc2cc(Cl)ccc12 (centres unmarked) [Chloroquine, chloroquine, reference compound]	–	7.2	–	–	–	–	225 ± 84.4	31.3 ± 9.7
COc1ccc2nc3cc(Cl)ccc3c(Nc3cc(CN4CCCC4)c(O)c(CN4CCCC4)c3)c2n1 [Pyronaridine, pyronaridine, reference compound]	33.3 ± 6.1	1.3	26.7 ± 3.8	–	114	3.05	–	–
CC(C)CCc1sc(NC(=O)c2cc(NC(=O)c3ccc(/C=C/c4ccc(F)cc4)nc3)cn2C)nc1C(=O)NCCCN(C)C.O=C(O)C(F)(F)F [S-MGB-376]	135 ± 1.6	0.9	147.2 ± 1.4	–	62	9.1	–	–
CC(C)CCc1sc(NC(=O)c2cc(NC(=O)c3cc(NC(=O)c4cccc(F)c4)cn3C)cn2C)nc1C(=O)NCCCN(C)C.O=C(O)C(F)(F)F [S-MGB-386]	207.1 ± 1.3	0.8	254.9 ± 1.2	101	>157	–	–	–
Cn1cc(NC(=O)c2cc(NC(=O)c3ccc(/C=C/c4ccc5nsnc5c4)cc3)cn2C)cc1C(=O)NCCN1CCOCC1.O=C(O)C(F)(F)F [S-MGB-188]	61.9 ± 0.3	1.1	57 ± 0.1	86	>193	–	–	–
Cn1cc(NC(=O)c2cc(NC(=O)c3ccc(/C=C/C(=O)Nc4ccccc4O)cc3)cn2C)cc1C(=O)NCCC(=N)N.O=C(O)C(F)(F)F [S-MGB-361]	558.5 ± 0.4	0.9	633.9 ± 0.2	90	>63.1	–	–	–
CC(C)CCc1sc(NC(=O)c2cc(NC(=O)c3ccc(/C=C/c4ccc(F)cc4)cc3)cn2C)nc1C(=O)NCCCN(C)C.O=C(O)C(F)(F)F [S-MGB-379]	148 ± 5.4	1.0	150 ± 2.7	–	56	8.34	–	–
CC(C)n1cc(NC(=O)c2cc(NC(=O)c3ccc(/C=C/c4cnc5ccccc5c4)cc3)cn2C)cc1C(=O)NCCN1CCOCC1.O=C(O)C(F)(F)F [S-MGB-192]	108 ± 20.6	1.1	96.3 ± 12.8	–	33	3.19	–	–
CC(C)CCc1sc(NC(=O)c2cc(NC(=O)c3ccc(/C=C/c4ccc(C(F)(F)F)cc4)cc3)cn2C)nc1C(=O)NCCCN(C)C.O=C(O)C(F)(F)F [S-MGB-377]	105 ± 6.3	1.4	73.1 ± 4.7	–	59	4.3	–	–
COc1cccc(/C=C/c2ccc(C(=O)Nc3cc(C(=O)Nc4cc(C(=O)NCCCN(C)C)n(C)c4)n(C)c3)cc2)c1.O=C(O)C(F)(F)F [S-MGB-131]	254.4 ± 0.2	1.3	200	101	–	–	–	–
CC(C)CCc1sc(NC(=O)c2cc(NC(=O)c3ccc(/C=C/c4cccc(C(F)(F)F)c4)nc3)cn2C)nc1C(=O)NCCCN(C)C.O=C(O)C(F)(F)F [S-MGB-380]	83.9 ± 3.6	1.1	74.7 ± 2.8	–	110	8.2	–	–
CC(C)CCn1cc(NC(=O)c2cc(NC(=O)c3cc(NC(=N)c4cc5ccccc5cn4)cn3C)cn2C)cc1C(=O)NCCCN(C)C.O=C(O)C(F)(F)F [S-MGB-330]	636.1 ± 0.4	1.6	407.7 ± 0.1	100	>98.1	–	–	–
Cn1cc(NC(=O)c2cc(NC(=O)c3ccc(/C=C/c4cccc(F)c4)cc3)cn2C)cc1C(=O)NCCC(=N)N.O=C(O)C(F)(F)F [S-MGB-391]	1295.5 ± 0.7	1.9	671.3 ± 1.4	100	>59.6	–	–	–
Cn1cc(NC(=O)c2cc(NC(=O)c3ccc(/C=C/c4ccc(F)cc4)cc3)cn2C)cc1C(=O)NCCC(=N)N.O=C(O)C(F)(F)F [S-MGB-390]	640.2 ± 0.6	1.2	532.6 ± 0.9	78	>75.1	–	–	–
CN(C)CCCNC(=O)c1cc(NC(=O)c2cc(NC(=O)c3cc(NC(=N)c4cc5ccccc5cn4)cn3C)cn2C)cn1C.O=C(O)C(F)(F)F [S-MGB-337]	101.8 ± 0.2	1.1	95.6	101	>219.7	–	–	–
COc1ccc(C[C@H](N)C(=O)N[C@H]2[C@@H](O)[C@H](n3cnc4c(N(C)C)ncnc43)O[C@@H]2CO)cc1 [Puromycin, puromycin, reference compound]	49.3 ± 3.5	1.2	41.9 ± 7.2	–	9	0.378	–	–

Source: paper PMC11528320, “S-MGBs bearing amidine tail groups are potent, selective antiplasmodial agents” (RSC Medicinal Chemistry, 2024)
